One test concerns the target T1, Human plasma kallikrein (Homo sapiens, UniProt P03952).
T1 construct: yields a heavy chain (371 amino acids) and a light chain (248 amino acids); purchased Enzyme Research Laboratories
Kind of test: Plasma Kallikrein Assay. It is filed as biochemical. To be noted: purified Human plasma kallikrein 0.5 nM, substrate Acetyl-K-P-R-AFC, pH 7.4.

The target of the next test is human factor XIa (Homo sapiens, UniProt P03951). In words: Factor XIa Assay. It is filed as biochemical. The settings on record: human factor XIa 0.04 nM, substrate GPR-AFC, 30 min pre-incubation at 25° C., pH 7.4; read-out: FXIa IC50.

Consider 15 molecules from patent US20230416227A1, “PLASMA KALLIKREIN INHIBITORS” (Merck Sharp & Dohme LLC, priority 2020, published 2023).

Each structure is given as a SMILES string. pIC50: −log10 of the molar value.

Sequence of human factor XIa (P03951 388-625 limits assumed): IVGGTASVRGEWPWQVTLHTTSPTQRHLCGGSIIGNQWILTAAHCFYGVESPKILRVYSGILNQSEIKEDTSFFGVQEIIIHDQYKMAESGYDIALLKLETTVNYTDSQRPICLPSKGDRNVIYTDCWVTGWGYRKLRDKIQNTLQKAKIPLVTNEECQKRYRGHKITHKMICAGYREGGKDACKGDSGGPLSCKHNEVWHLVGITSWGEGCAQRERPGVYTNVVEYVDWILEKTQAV
Sequence of human factor XIa (P03951 19-387 partner limits assumed): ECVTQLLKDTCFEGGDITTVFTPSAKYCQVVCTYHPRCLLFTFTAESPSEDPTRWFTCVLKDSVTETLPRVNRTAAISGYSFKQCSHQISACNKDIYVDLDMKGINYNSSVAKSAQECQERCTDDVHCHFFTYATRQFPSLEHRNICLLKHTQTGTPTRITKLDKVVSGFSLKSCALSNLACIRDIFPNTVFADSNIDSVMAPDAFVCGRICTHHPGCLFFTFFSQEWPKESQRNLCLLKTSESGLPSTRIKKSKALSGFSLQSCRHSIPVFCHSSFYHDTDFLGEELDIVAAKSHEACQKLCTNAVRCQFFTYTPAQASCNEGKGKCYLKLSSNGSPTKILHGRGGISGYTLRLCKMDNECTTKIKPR
T1 sequence (P03952 391-638 limits assumed): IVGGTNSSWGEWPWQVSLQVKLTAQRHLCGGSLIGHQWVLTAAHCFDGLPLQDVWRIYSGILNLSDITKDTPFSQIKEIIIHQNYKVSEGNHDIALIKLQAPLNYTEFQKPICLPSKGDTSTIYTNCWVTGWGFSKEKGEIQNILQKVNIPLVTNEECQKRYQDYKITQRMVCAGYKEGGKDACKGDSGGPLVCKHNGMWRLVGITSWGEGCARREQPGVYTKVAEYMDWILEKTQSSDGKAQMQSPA
T1 sequence (P03952 20-390 partner limits assumed): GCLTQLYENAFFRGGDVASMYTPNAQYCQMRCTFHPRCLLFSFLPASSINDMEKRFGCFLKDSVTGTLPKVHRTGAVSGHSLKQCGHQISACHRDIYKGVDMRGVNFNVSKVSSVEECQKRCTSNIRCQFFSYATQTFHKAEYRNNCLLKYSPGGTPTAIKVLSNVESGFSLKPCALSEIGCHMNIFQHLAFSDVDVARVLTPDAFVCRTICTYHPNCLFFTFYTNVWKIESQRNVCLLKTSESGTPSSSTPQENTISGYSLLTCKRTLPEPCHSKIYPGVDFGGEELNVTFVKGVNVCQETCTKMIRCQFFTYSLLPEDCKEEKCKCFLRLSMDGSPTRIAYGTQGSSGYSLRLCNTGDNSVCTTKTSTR

`O=C(Nc1cnn(Cc2cnc(N3CCC3)nc2)n1)c1cncc(-c2c(C(F)F)ccc(Cl)c2F)n1` [Example 25, N-(2-((2-(Azetidin-1-yl)pyrimidin-5-yl)methyl)-2H-1,2,3-triazol-4-yl)-6-(3-chloro-6-(difluoromethyl)-2-fluorophenyl)pyrazine-2-carboxamide]: the pIC50 was 7.38 at Human plasma kallikrein and 5.22 on human factor XIa.

Regarding `[2H]C(C)(c1cnc(N2CCC2)nc1)n1cc(NC(=O)c2cncc(-c3c(C(F)F)ccc(Cl)c3F)n2)cn1` (single isomer, unassigned) [Example 43, (R or S)-N-(1-(1-(2-(azetidin-1-yl)pyrimidin-5-yl)ethyl-1-d)-1H-pyrazol-4-yl)-6-(3-chloro-6-(difluoromethyl)-2-fluorophenyl)pyrazine-2-carboxamide], the pIC50 against Human plasma kallikrein was 7.71; on human factor XIa it was 5.93.

Take `C[C@@H](O)c1ncc(-c2c(C(F)F)ccc(Cl)c2F)nc1C(=O)Nc1cnn(Cc2cnc(N3CCC3)nc2)c1` (single isomer, unassigned) [Example 135]: the pIC50 at Human plasma kallikrein is 8.55; on human factor XIa, 6.92.

As for `O=C(Nc1cnn(C2CCc3cc(N4CCC4)ncc32)c1)c1cncc(-c2c(C(F)F)ccc(Cl)c2F)n1` (single isomer, unassigned) [Example 119, (R or S)-N-(1-(3-(Azetidin-1-yl)-6,7-dihydro-5H-cyclopenta[c]pyridin-7-yl)-1H-pyrazol-4-yl)-6-(3-chloro-6-(difluoromethyl)-2-fluorophenyl)pyrazine-2-carboxamide], the values for the negative-log IC50 (pIC50) on Human plasma kallikrein and on human factor XIa were 7.84 and 5.45, respectively.

Regarding `O=C(Nc1cnn(Cc2cnc(N3CCCC3CCO)nc2)c1)c1cncc(-c2c(C(F)F)ccc(Cl)c2F)n1` (single isomer, unassigned) [Example 105, (S or R)-6-(3-Chloro-6-(difluoromethyl)-2-fluorophenyl)-N-(1-((2-(2-(2-hydroxyethyl)pyrrolidin-1-yl)pyrimidin-5-yl)methyl)-1H-pyrazol-4-yl)pyrazine-2-carboxamide], the pIC50 is 7.43 against Human plasma kallikrein and 5.47 on human factor XIa.

Consider `CC(c1cnc(N2C[C@H]3C[C@H]3[C@H]2C(N)=O)nc1)n1cc(NC(=O)c2cncc(-c3c(C(F)F)ccc(Cl)c3F)n2)cn1` (relative stereo) [Example 195, (cis)-3-(5-(1-(4-(6-(3-Chloro-6-(difluoromethyl)-2-fluorophenyl)pyrazine-2-carboxamido)-1H-pyrazol-1-yl)ethyl)pyrimidin-2-yl)-3-azabicyclo[3.1.0]hexane-2-carboxamide], for which the results for the pIC50 against Human plasma kallikrein and at human factor XIa were 7.96 and 5.06, respectively.

As to `C[C@H]1[C@@H](O)CCN1C[C@@H]1CCCN1c1ncc(Cn2cc(NC(=O)c3cncc(-c4c(C(F)F)ccc(Cl)c4F)n3)cn2)cn1` [Example 146, 6-(3-Chloro-6-(difluoromethyl)-2-fluorophenyl)-N-(1-((2-((S)-2-(((2S,3S)-3-hydroxy-2-methylpyrrolidin-1-yl)methyl)pyrrolidin-1-yl)pyrimidin-5-yl)methyl)-1H-pyrazol-4-yl)pyrazine-2-carboxamide], the results for the pIC50 against Human plasma kallikrein and at human factor XIa were 9.22 and 5.14, respectively.

Take `Cc1nc(N2CCC2)ncc1Cn1cc(NC(=O)c2cncc(-c3c(C(F)F)ccc(Cl)c3F)n2)cn1` [Example 8, N-(1-((2-(Azetidin-1-yl)-4-methylpyrimidin-5-yl)methyl)-1H-pyrazol-4-yl)-6-(3-chloro-6-(difluoromethyl)-2-fluorophenyl)pyrazine-2-carboxamide]: the pIC50 on Human plasma kallikrein was 8.38; on human factor XIa it was 6.34.

With `CC(c1cnc(N2CC3CC3C2)nc1)n1cc(NC(=O)c2nc(-c3c(C(F)F)ccc(Cl)c3F)cnc2N(C)C)cn1` (single isomer, unassigned) [Example 34, N-(1-((1R or 1S)-1-(2-(3-azabicyclo[3.1.0]hexan-3-yl)pyrimidin-5-yl)ethyl)-1H-pyrazol-4-yl)-6-(3-chloro-6-(difluoromethyl)-2-fluorophenyl)-3-(dimethylamino)pyrazine-2-carboxamide], the pIC50 against Human plasma kallikrein is 7.55; on human factor XIa, 5.48.

As for `CC(c1cnc(N2C[C@H]3C[C@H]3C2C(=O)N(C)C)nc1)n1cc(NC(=O)c2cncc(-c3c(C(F)F)ccc(Cl)c3F)n2)cn1` (single isomer, unassigned) [Example 202, (1R,2S,5S or 1S,2R,5R)-3-(5-((R or S)-1-(4-(6-(3-Chloro-6-(difluoromethyl)-2-fluorophenyl)pyrazine-2-carboxamido)-1H-pyrazol-1-yl)ethyl)pyrimidin-2-yl)-N,N-dimethyl-3-azabicyclo[3.1.0]hexane-2-carboxamide], the figures for the pIC50 against Human plasma kallikrein and at human factor XIa were 9.00 and 5.65, respectively.

Consider `CC(c1ccc(N2CCC2)nc1)n1cc(NC(=O)c2cncc(-c3c(C(F)F)ccc(Cl)c3F)n2)cn1` (single isomer, unassigned) [Example 38, (R or S)-N-(1-(1-(6-(azetidin-1-yl)pyridin-3-yl)ethyl)-1H-pyrazol-4-yl)-6-(3-chloro-6-(difluoromethyl)-2-fluorophenyl)pyrazine-2-carboxamide], for which the negative-log IC50 (pIC50) on Human plasma kallikrein is 8.30; on human factor XIa it was 5.59.

Turning to `C[C@@H](c1cnc(N2C[C@@H]3C[C@@H]3[C@@H]2CO)nc1)n1cc(NC(=O)c2cncc(-c3c(C(F)F)ccc(Cl)c3F)n2)cn1` (single isomer, unassigned) [Example 76, 6-(3-Chloro-6-(difluoromethyl)-2-fluorophenyl)-N-(1-((S or R)-1-(2-((1S,2R,5R or 1R,2S,5S)-2-(hydroxymethyl)-3-azabicyclo[3.1.0]hexan-3-yl)pyrimidin-5-yl)ethyl)-1H-pyrazol-4-yl)pyrazine-2-carboxamide], the pIC50 was 8.27 at Human plasma kallikrein and 5.33 at human factor XIa.

Regarding `CC(c1cnc(N2CC3(CC3)C2)nc1)n1cc(NC(=O)c2cncc(-c3c(C(F)F)ccc(Cl)c3F)n2)cn1` (single isomer, unassigned) [Example 93, (R or S)-N-(1-(1-(2-(5-Azaspiro[2.3]hexan-5-yl)pyrimidin-5-yl)ethyl)-1H-pyrazol-4-yl)-6-(3-chloro-6-(difluoromethyl)-2-fluorophenyl)pyrazine-2-carboxamide], the figures for the pIC50 against Human plasma kallikrein and at human factor XIa were 7.70 and 5.37, respectively.

Regarding `O=C(Nc1cnn(Cc2cnc(N3C[C@H]4C[C@H]4[C@H]3CN3CC(O)(C(F)(F)F)C3)nc2)c1)c1cncc(-c2c(C(F)F)ccc(Cl)c2F)n1` [Example 155, 6-(3-Chloro-6-(difluoromethyl)-2-fluorophenyl)-N-(1-((2-((1R,2S,5S)-2-((3-hydroxy-3-(trifluoromethyl)azetidin-1-yl)methyl)-3-azabicyclo[3.1.0]hexan-3-yl)pyrimidin-5-yl)methyl)-1H-pyrazol-4-yl)pyrazine-2-carboxamide], the pIC50 was 8.74 on Human plasma kallikrein and 5.43 on human factor XIa.

On to `Cc1ncc(-c2c(C(F)F)ccc(Cl)c2F)nc1C(=O)Nc1cnn(C(C)c2cnc(N3CCC3)nc2)c1` (single isomer, unassigned) [Example 28, (R or S)-N-(1-(1-(2-(azetidin-1-yl)pyrimidin-5-yl)ethyl)-1H-pyrazol-4-yl)-6-(3-chloro-6-(difluoromethyl)-2-fluorophenyl)-3-methylpyrazine-2-carboxamide], for which the negative logarithm of the IC50 (pIC50) was 7.92 at Human plasma kallikrein and 6.03 on human factor XIa.

The term pIC50 denotes −log10 of the IC50, conventionally taken in molar units.
